The values below come from patent US11878975B2, “Substituted indole compounds useful as TLR inhibitors” (BRISTOL-MYERS SQUIBB COMPANY, priority 2017, dated 2024).

One may read the IC50 as the point on the concentration scale where inhibition reaches its midpoint. A lower IC50 goes with greater potency in that assay.

Format in all cases: cell-based
The target of assay [1] is T1, human TLR9 (Homo sapiens, UniProt Q9NR96).
T1 construct: host or cells: HEK-Blue cells
T1 sequence (Q9NR96 26-1032): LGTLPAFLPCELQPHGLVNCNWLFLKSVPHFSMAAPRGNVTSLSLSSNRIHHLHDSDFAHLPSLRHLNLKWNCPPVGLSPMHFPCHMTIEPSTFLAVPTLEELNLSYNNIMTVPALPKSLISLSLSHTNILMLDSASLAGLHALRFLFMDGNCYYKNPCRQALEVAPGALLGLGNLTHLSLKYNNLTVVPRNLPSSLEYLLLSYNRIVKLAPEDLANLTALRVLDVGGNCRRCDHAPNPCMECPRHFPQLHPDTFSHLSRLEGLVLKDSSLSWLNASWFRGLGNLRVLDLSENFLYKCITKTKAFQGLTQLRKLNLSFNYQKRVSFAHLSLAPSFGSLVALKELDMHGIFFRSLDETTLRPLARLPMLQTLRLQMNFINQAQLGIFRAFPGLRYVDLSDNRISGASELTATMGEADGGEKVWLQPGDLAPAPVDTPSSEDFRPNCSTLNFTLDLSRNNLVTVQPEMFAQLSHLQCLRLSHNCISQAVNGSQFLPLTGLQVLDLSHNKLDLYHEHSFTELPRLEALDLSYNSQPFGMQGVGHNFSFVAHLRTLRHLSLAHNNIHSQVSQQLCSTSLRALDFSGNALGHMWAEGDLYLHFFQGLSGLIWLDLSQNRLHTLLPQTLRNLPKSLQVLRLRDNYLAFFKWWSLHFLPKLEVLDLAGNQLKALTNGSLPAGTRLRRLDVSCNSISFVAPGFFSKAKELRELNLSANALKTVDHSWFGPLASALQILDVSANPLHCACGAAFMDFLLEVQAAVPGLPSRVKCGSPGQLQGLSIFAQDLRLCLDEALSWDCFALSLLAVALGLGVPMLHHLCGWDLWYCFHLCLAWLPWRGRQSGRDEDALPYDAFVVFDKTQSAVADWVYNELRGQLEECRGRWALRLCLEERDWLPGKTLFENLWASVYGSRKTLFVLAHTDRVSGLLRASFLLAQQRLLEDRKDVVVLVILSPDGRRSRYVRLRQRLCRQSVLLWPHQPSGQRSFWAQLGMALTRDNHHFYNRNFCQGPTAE
Kind of assay: TLR9 inhibition reporter assay (HEK-Blue cells, SEAP reporter, ODN2006 stimulation). To be noted: HEK-Blue cells overexpressing human TLR9, SEAP reporter, ODN2006 5 nM. The essentials:
(§1)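 Ligand levels: TLR7 gardiquimod 7.5 μM, TLR8 R848 15.9 μM, TLR9 ODN2006 5 nM, added after 30 min room-temperature compound pre-incubation at 0.05 nM-50 μM. Reporter SEAP read with HEK-Blue Detection reagent after 22 h, 37° C. Inhibition expressed as % reduction relative to agonist-plus-DMSO and known-inhibitor controls.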
In general terms: In a reporter assay the amount or activity of a reporter protein is the signal.

Assay [2] has as its target T2, human TLR8 (Homo sapiens, UniProt Q9NR97).
T2 construct: host or cells: HEK-Blue cells
T2 sequence (Q9NR97 27-1041): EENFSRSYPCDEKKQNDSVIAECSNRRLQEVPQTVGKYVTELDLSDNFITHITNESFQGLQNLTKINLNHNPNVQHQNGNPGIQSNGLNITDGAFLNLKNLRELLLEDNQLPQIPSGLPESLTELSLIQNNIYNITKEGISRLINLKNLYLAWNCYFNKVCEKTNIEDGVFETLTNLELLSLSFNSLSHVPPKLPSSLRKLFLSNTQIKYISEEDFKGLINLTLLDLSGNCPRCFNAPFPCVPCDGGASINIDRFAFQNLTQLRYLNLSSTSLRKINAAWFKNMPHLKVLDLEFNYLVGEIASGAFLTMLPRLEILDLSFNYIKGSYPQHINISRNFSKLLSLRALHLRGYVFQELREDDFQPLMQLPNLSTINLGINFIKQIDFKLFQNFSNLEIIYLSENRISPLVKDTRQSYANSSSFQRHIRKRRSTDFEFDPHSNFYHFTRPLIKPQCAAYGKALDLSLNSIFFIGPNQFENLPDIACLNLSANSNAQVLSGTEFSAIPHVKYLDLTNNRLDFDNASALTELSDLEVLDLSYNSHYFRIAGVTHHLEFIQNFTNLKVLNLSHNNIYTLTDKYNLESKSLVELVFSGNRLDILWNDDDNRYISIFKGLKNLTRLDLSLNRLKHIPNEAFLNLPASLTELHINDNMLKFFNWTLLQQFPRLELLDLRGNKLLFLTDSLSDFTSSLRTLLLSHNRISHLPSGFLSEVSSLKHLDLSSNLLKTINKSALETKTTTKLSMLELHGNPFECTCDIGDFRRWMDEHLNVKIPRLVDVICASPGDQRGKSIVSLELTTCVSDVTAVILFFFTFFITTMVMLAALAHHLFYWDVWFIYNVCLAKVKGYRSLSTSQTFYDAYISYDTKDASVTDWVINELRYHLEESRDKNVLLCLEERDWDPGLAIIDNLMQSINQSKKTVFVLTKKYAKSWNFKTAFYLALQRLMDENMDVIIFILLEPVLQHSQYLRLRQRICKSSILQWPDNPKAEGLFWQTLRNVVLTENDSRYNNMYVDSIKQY
Kind of assay: TLR8 inhibition reporter assay (HEK-Blue cells, SEAP reporter, R848 stimulation). To be noted: HEK-Blue cells overexpressing human TLR8, SEAP reporter, R848 15.9 μM. The essentials: as §1

The target in assay [3] is T3, human TLR7 (Homo sapiens, UniProt Q9NYK1).
T3 construct: host or cells: HEK-Blue cells
T3 sequence (Q9NYK1 27-1049): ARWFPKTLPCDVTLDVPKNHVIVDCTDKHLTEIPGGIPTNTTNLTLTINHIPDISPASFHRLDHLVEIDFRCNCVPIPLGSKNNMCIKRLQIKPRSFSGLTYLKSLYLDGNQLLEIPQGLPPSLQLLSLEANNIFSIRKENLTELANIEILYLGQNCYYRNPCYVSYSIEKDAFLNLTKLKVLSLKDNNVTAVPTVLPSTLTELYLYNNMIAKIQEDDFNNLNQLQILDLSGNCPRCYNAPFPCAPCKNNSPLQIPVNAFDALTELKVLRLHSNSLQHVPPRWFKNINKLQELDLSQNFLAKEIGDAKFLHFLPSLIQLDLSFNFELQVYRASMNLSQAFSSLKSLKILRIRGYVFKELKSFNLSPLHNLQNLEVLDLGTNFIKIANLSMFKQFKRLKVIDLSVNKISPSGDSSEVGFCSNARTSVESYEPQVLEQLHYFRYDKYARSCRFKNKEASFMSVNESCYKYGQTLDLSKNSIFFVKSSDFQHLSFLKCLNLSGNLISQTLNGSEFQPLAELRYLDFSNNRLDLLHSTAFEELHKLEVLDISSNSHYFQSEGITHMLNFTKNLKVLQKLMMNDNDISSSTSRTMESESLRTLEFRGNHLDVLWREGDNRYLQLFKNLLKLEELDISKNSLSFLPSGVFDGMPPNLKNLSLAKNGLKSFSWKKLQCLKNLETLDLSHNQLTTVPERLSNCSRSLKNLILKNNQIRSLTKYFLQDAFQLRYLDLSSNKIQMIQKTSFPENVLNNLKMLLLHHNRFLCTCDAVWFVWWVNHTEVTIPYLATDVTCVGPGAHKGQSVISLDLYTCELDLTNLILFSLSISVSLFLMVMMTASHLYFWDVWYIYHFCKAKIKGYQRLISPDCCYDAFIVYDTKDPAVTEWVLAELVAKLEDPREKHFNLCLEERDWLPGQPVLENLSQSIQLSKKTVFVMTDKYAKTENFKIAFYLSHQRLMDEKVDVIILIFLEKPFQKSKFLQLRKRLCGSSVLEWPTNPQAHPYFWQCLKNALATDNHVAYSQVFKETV
Kind of assay: TLR7 inhibition reporter assay (HEK-Blue cells, SEAP reporter, gardiquimod stimulation). The conditions noted are these: HEK-Blue cells overexpressing human TLR7, SEAP reporter, gardiquimod 7.5 μM. The essentials: as §1

Take `Cc1cc(-c2[nH]c3ccc(C4CN(CC5(C)COC5)CCO4)cc3c2C(C)C)cn2ncnc12` (stereo not drawn) [Example 291]: the 50% inhibitory concentration (IC50) in assay [1] was > 50000 nM; in assay [2], 26 nM; in assay [3] it was 20 nM.
For the compound `Cc1cc(-c2[nH]c3ccc(C4CCC(N)CC4)cc3c2C(C)C)cn2ncnc12` (single isomer, unassigned) [Example 4], the values for the IC50 in assay [1], in assay [2] and in assay [3] were 3170 nM, 45 nM and 6 nM, respectively.
Regarding `CNC1CCC(c2ccc3[nH]c(-c4cc(C)nc(C)c4)c(C(C)C)c3c2)CC1` (single isomer, unassigned) [Example 52], the IC50 in assay [1] turned out to be 331 nM; in assay [2], 1.8 nM; in assay [3], 0.42 nM.
For `CCCN1CC(c2ccc3[nH]c(-c4cn5cnnc5c(C)c4C)c(C(C)C)c3c2)C1` [Example 546], in that order: 3870 nM, 5.8 nM and 4 nM.
Turning to `Cc1c(-c2[nH]c3ccc(C4CCC(NC(=O)CN(C)C)CC4)cc3c2C(C)C)cn2ncnc2c1C` (stereo not drawn) [Example 123], the IC50 was > 50000 nM in assay [1], 1 nM in assay [2] and 0.52 nM in assay [3].
The matching figures for `Cc1c(-c2[nH]c3ccc(C4CC(N(C)CCS(C)(=O)=O)C4)cc3c2C(C)C)cn2ncnc2c1C` (stereo not drawn) [Example 582]: 35700 nM, 0.56 nM and 3 nM.
In the case of `CCN(CC)CC(=O)NC1CCC(c2ccc3[nH]c(-c4cn5ncnc5c(C)c4C)c(C(C)C)c3c2)CC1` (stereo not drawn) [Example 125], the IC50 worked out at 6980 nM in assay [1], 10 nM in assay [2] and 11 nM in assay [3].
Take `CNC(=O)CN1CCOC(c2ccc3[nH]c(-c4cc(C)c5ncnn5c4)c(C(C)C)c3c2)C1` (stereo not drawn) [Example 317]: the IC50 was > 50000 nM in assay [1], 90 nM in assay [2] and 12 nM in assay [3].
For `COc1cc(-c2[nH]c3ccc(C4CCC(N(C)C(C)C)CC4)cc3c2C(C)C)cn2ncnc12` (single isomer, unassigned) [Example 7, N-isopropyl-4-(3-isopropyl-2-(8-methoxy-[1,2,4]triazolo[1,5-a]pyridin-6-yl)-1H-indol-5-yl)-N-methylcyclohexanamine], in that order: 2000 nM, 4.4 nM and 1 nM.
In the case of `CCN(C)C1CCC(c2ccc3[nH]c(-c4cc(OC)c5ncnn5c4)c(C(C)C)c3c2)CC1` (single isomer, unassigned) [Example 66], the IC50 in assay [1] was found to be 1170 nM; in assay [2], 4.4 nM; in assay [3] it was 0.85 nM.
Turning to `COc1cc(-c2[nH]c3ccc(CCN4CCN(C)CC4)cc3c2C(C)C)cn2ncnc12` [Example 413], the half-inhibitory concentration (IC50) in assay [1] was 2750 nM; in assay [2], 0.9 nM; in assay [3], 2 nM.
`CC(C)c1c(-c2ccnc3[nH]ncc23)[nH]c2ccc(CN3CCN(C)CC3)cc12` [Example 442]: the IC50 in assay [1] was 7600 nM; in assay [2], 4.6 nM; in assay [3], 26 nM.
Consider `COc1cc(-c2[nH]c3ccc(C4CCC(N(C)C(C)C)C4)cc3c2C(C)C)cn2ncnc12` (single isomer, unassigned) [Example 278, N-isopropyl-3-(3-isopropyl-2-(8-methoxy-[1,2,4]triazolo[1,5-a]pyridin-6-yl)-1H-indol-5-yl)-N-methylcyclopentan-1-amine], for which the IC50 in assay [1] worked out at 1410 nM; in assay [2], 1.5 nM; in assay [3], 2 nM.
For the compound `Cc1c(-c2[nH]c3ccc(C4CN(CCS(C)(=O)=O)C4)cc3c2C(C)C)cn2cnnc2c1C` [Example 532], the figures for the IC50 in assay [1], in assay [2] and in assay [3] were 16900 nM, 20 nM and 13 nM, respectively.
Turning to `Cc1cc(-c2[nH]c3ccc(C4CCC(OC5CCNCC5)CC4)cc3c2C(C)C)ccn1` (stereo not drawn) [Example 503], the IC50 amounted to 2860 nM in assay [1], 44 nM in assay [2] and 28 nM in assay [3].
With `COc1cc(-c2[nH]c3ccc(CCN4CCCCC4)cc3c2C(C)C)cn2ncnc12` [Example 412], the IC50 in assay [1] was determined as 5270 nM; in assay [2] it was 2.9 nM; in assay [3], 5 nM.
Consider `Cc1cc(-c2[nH]c3ccc(C4CCC(N(C)C5CC5)CC4)cc3c2C(C)C)cn2ncnc12` (single isomer, unassigned) [Example 8], for which the IC50 in assay [1] amounted to 3690 nM; in assay [2], 16 nM; in assay [3], 6 nM.
On to `COc1cc(-c2[nH]c3ccc(C4CCC(NS(C)(=O)=O)CC4)cc3c2C(C)C)cn2ncnc12` (stereo not drawn) [Example 117, N-(4-(3-isopropyl-2-(8-methoxy-[1,2,4]triazolo[1,5-a]pyridin-6-yl)-1H-indol-5-yl)cyclohexyl)methanesulfonamide], for which the IC50 is 14100 nM in assay [1], 9.8 nM in assay [2] and 0.7 nM in assay [3].
For `CNCC(=O)N1CCOC(c2ccc3[nH]c(-c4cc(OC)c5ncnn5c4)c(C(C)C)c3c2)C1` (stereo not drawn) [Example 339], in that order: 863 nM, 6 nM and 1 nM.
